Results published in patent US10986835B2, “Use of 9-tricosene to control Drosophila suzukii” (Globachem NV, priority 2016, dated 2021).

Key:
Drosophila suzukii [1] = assay: Behavior assay: copulation between wild type 4-day-old males and perfumed 4-day-old females; format: in vivo; settings: perfumed four-day-old females paired with wild type four-day-old males; filmed two hours; FIG. 3
Protocol: (§1) Drosophila suzukii adults were caught in the wild (Sint-Truiden, Limburg, Belgium). The flies were reared in quarantined facilities at 21° C. on Cornmeal-sucrose-yeast-agar medium.
(§2) All flies were collected within 12 hours of eclosing, after which they were used to make one-day-old samples or aged to four days old. The four-day-old socially nave flies were aged separated from the other sex, contrary to the socially experienced flies, which were aged, mixed with the other sex.
N-hexane (95%), n-heneicosane (98%), n-tricosane (98%), (Z)-7-tricosene (98%) and (Z)-9-tricosene (97%) were bought from Thermo-Fischer and Sigma Aldrich. (Z)-5-tricosene (99%) and 2-methyloctacosane (95%) were synthesized by a hired company, Ecosynth (Gent, Belgium). These compounds were dissolved in n-hexane (95%) and painted onto the abdomen of Drosophila suzukii flies using number 2 paintbrushes. […]
Behavior assays were performed in a room with regulated temperature (21° C.) and always at the same time (10 h30). […] Subsequently these videos were analyzed for courtship behavior and copulation based on Mazzoni et al. 2013 (Plos One 8(11): e80708). The behavioral data was analyzed using a contingency table and followed by t-tests, as well as one-way ANOVA tests for the continuous data.
Behavior experiments were performed as follows. […] Subjects were scored for both courtship modules as well as copulation. […]

Drosophila suzukii [2] = assay: Behavior assay: courtship behavior of wild type 4-day-old males towards perfumed flies; format: in vivo; settings: compound in n-hexane painted onto abdomen; 4 tested conditions (perfumed 1-day-old females, 1-day-old males, 4-day-old females, 4-day-old males) paired with wild type 4-day-old males; filmed two hours; FIG. 1
Protocol: as §1, §2
N-hexane (95%), n-heneicosane (98%), n-tricosane (98%), (Z)-7-tricosene (98%) and (Z)-9-tricosene (97%) were bought from Thermo-Fischer and Sigma Aldrich. (Z)-5-tricosene (99%) and 2-methyloctacosane (95%) were synthesized by a hired company, Ecosynth (Gent, Belgium). These compounds were dissolved in n-hexane (95%) and painted onto the abdomen of Drosophila suzukii flies using number 2 paintbrushes. The four-day-old flies were perfumed 24 hours prior to testing, one-day-old flies 1 hour prior to testing.
Behavior assays were performed in a room with regulated temperature (21° C.) and always at the same time (10 h30). The perfumed Drosophila suzukii flies were put individually with a wild type four-day-old Drosophila suzukii male in a circular arena (3 cm diameter). Every couple was filmed for two hours, due to the low activity rate of the species, using Sony Handycams CX240. Subsequently these videos were analyzed for courtship behavior and copulation based on Mazzoni et al. 2013 (Plos One 8(11): e80708). The behavioral data was analyzed using a contingency table and followed by t-tests, as well as one-way ANOVA tests for the continuous data.
Behavior experiments were performed as follows. Four different conditions of flies were perfumed: one-day-old females, one-day-old males, four-day-old females and four-day-old males. These perfumed flies were paired with wild type four-day-old males. Subjects were scored for both courtship modules as well as copulation. As a control the solvent for the perfumes (n-hexane) was used.

SMILES	effect on occurrence of copulation (Drosophila suzukii [1])	effect on occurrence of courtship (Drosophila suzukii [2])
CCCCCCCC/C=C\CCCCCCCCCCCCC [(Z)-9-tricosene]	significantly decreased	no significant differences
CCCCCCCCCCCCCCCCCCCCCCCCCCC(C)C [2-methyloctacosane]	–	no significant differences
CCCC/C=C\CCCCCCCCCCCCCCCCC [(Z)-5-tricosene]	–	no significant differences
CCCCCCCCCCCCCCCCCCCCC [n-heneicosane]	–	no significant differences
CCCCCCCCCCCCCCCCCCCCCCC [n-tricosane]	–	no significant differences
CCCCCC/C=C\CCCCCCCCCCCCCCC [(Z)-7-tricosene]	significantly decreased	no significant differences
